US12338249B2, “Crystalline forms of N-(4-(1-(2,6-difluorobenzyl)-5-((dimethylamino)methyl)-3-(6-methoxy-3-pyridazinyl)-2,4-dioxo-1,2,3,4-tetrahydrothieno[2,3-d]pyrimidin-6-yl)phenyl)-N′-methoxyurea” (Sumitomo Pharma Switzerland GmbH, priority 2019, dated 2025)

Test: Thermodynamic aqueous solubility of crystalline Forms I and II of Compound 1 (HPLC)
Format: physicochemical
Experimental: Substance contents in test solutions were measured using HPLC Prominence/PDA detector (Shimadzu Corporation). The analytical conditions and calculation formula were as follows: […]
The thermodynamic solubility of Forms I and II was determined at pH 1.2 and pH 6.8 and in 20 mM GCDC, pH 6.8 at 37° C. with an equilibrium period for 2, 6 and 24 hours.

[1] = 20 mM GCDC (sodium glycochenodeoxycholate), pH 6.8, 37° C., 2 hrs equilibrium, average n=3
[2] = 20 mM GCDC (sodium glycochenodeoxycholate), pH 6.8, 37° C., 6 hrs equilibrium, average n=3
[3] = 20 mM GCDC (sodium glycochenodeoxycholate), pH 6.8, 37° C., 24 hrs equilibrium, average n=3
[4] = pH 6.8, 37° C., 2 hrs equilibrium, average n=3
[5] = pH 6.8, 37° C., 6 hrs equilibrium, average n=3
[6] = pH 6.8, 37° C., 24 hrs equilibrium, average n=3

Aqueous Solubility [1] [µg/mL]	Aqueous Solubility [2] [µg/mL]	Aqueous Solubility [3] [µg/mL]	Solubility compared between Form I and Form II (in words) (20 mM GCDC, pH 6.8, 37° C.)	Aqueous Solubility (pH 1.2, 37° C., 2 hrs equilibrium, average n=3) [µg/mL]	Aqueous Solubility (pH 1.2, 37° C., 6 hrs equilibrium, average n=3) [µg/mL]	Aqueous Solubility (pH 1.2, 37° C., 24 hrs equilibrium, average n=3) [µg/mL]	Solubility compared between Form I and Form II (in words) (pH 6.8, 37° C.)	Aqueous Solubility [4] [µg/mL]	Aqueous Solubility [5] [µg/mL]	Aqueous Solubility [6] [µg/mL]	Aqueous solubility compared between Form II and Form I (in words) (37° C., overall comparison of Tables 3 and 4)	solubility at 2 h (aqueous solution, pH 1.2, 37 °C, pH 1.2, simulated gastric fluid, thermodynamic from solid, 2 hrs equilibrium, average n=3) [µg/mL]	solubility at 6 h (aqueous solution, pH 1.2, 37 °C, pH 1.2, simulated gastric fluid, thermodynamic from solid, 6 hrs equilibrium, average n=3) [µg/mL]	solubility at 24 h (aqueous solution, pH 1.2, 37 °C, pH 1.2, simulated gastric fluid, thermodynamic from solid, 24 hrs equilibrium, average n=3) [µg/mL]	Solubility compared between Form I and Form II (in words) (pH 6.8, 37° C., listed as Form II of Compound 1)	SMILES
960	980	970	lower solubility than Form II	>10000	>10000	>10000	lower solubility than Form II	80	80	70						CONC(=O)Nc1ccc(-c2sc3c(c2CN(C)C)c(=O)n(-c2ccc(OC)nn2)c(=O)n3Cc2c(F)cccc2F)cc1 [Form I, N-(4-(1-(2,6-difluorobenzyl)-5-((dimethylamino)methyl)-3-(6-methoxy-3-pyridazinyl)-2,4-dioxo-1,2,3,4-tetrahydrothieno[2,3-d]pyrimidin-6-yl)phenyl)-N′-methoxyurea]
2750	3300	4120						520	510	520	more soluble than Form I of Compound 1	> 10000	> 10000	> 10000	higher aqueous solubility	CONC(=O)Nc1ccc(-c2sc3c(c2CN(C)C)c(=O)n(-c2ccc(OC)nn2)c(=O)n3Cc2c(F)cccc2F)cc1 [Form II, N-(4-(1-(2,6-difluorobenzyl)-5-((dimethylamino)methyl)-3-(6-methoxy-3-pyridazinyl)-2,4-dioxo-1,2,3,4-tetrahydrothieno[2,3-d]pyrimidin-6-yl)phenyl)-N′-methoxyurea]
